In patent publication US20220402925A1, “COMPOUNDS AND METHODS FOR THE TREATMENT OF CYSTIC FIBROSIS” (Flatley Discovery Lab, LLC, priority 2019, published 2022):

Target: T1, F508del CFTR (Homo sapiens, UniProt P13569, DEL508-508)
T1 construct: Primary CF airway epithelial cells were obtained from the UNC Cystic Fibrosis Tissue Procurement and Cell Culture Core; host or cells: primary CF airway epithelial cells
Assay: Equivalent current assay in primary CF airway epithelial cells (Corrector Activity, NAUC normalized to 3 μM VX809)
Type: cell-based
Conditions: NAUC as % of positive control (VX-809)
Protocol: Primary CF airway epithelial cells were obtained from the UNC Cystic Fibrosis Tissue Procurement and Cell Culture Core. The cells are grown at 37° C. in a Heracell 150i incubator using growth media (BEGM, Fischer). Cells were then transferred to differentiation media (airway liquid interface media (ALI) media; Lechner J F and LaVeck M A, J. Tissue Culture Methods 1985, 9: 43-48) for a minimum of 4 weeks on coated Costar transwells. Two days before the assay the mucus on the apical surface of the cells was aspirated after incubating with 200 μL of differentiation media for at least thirty (30) minutes. One day before the assay test compounds were added to the basolateral surface of the cells at various test concentrations dissolved in DMSO. Duplicate wells were prepared giving a n=4 or n=6 protocol.
Cells were treated for 24 hours with various combinations and concentrations of the test articles, reference standard (3 μM VX809, positive control). Compounds stock solutions were prepared in DMSO and diluted 1/1000 into ALI media to their final assay concentration. Cells were treated with combination solutions (2 mL of each dilution) and incubated at 37° C. for 24 h.
For the equivalent current assay, cells on six Transwell (24-well) plates were treated. Each Transwell plate was filled with 200 μl of HBS on the apical surface and 2 ml on the basolateral surface. Plates were placed horizontally in a heated mount at 37° C. and equilibrated for 30 minutes. Resting current was measured for 15 min and then blocked by the apical addition of 5 μM benzamil. After 20 min, CFTR activator (10 μM forskolin) and potentiator (either 1 μM VX-770 or 3 μM FDL176) were added to both the apical and basolateral side to stimulate CFTR. An increase in chloride current is seen as an upward deflection of the trace. After another 60 min, CFTR-172 (a CFTR inhibitor, 20 μM) and/or bumetanide (20 uM) was added to block CFTR mediated chloride current.
The raw data, voltage vs. time and resistance vs. time for the equivalent current assay (sampling interval: 6 minutes) were transferred to Excel (Microsoft Office Professional, version 14.0.7106.5003) for analysis. CFTR specific current was computed from I=V/R (Ohms Law), the average amplitude of the increase in current elicited upon addition forskolin and ending upon addition of the CFTR channel specific blocker CFTR-172. This average is equivalent to the sum of the average forskolin activated and the average VX770-potentiated currents. The average current measured in vehicle (0.1% DMSO) treated cells, IV, was subtracted from the current for the test article, ITA, or from the corrector reference standard VX809 (3 uM, ISTD). For replicate measurements, the averaged vehicle subtracted response for the test article, was normalized to the averaged vehicle subtracted response of the reference corrector VX809 (3 μM).
INSC=(ITA−IV)(ave)/(ISTD−IV)(ave) (Equation 1)
A second endpoint, for the equivalent current assay, evaluated was NAUC, the normalized area under the curve (AUC) measuring the response after addition of forskolin and potentiator to the time point right before the addition of the CFTR inhibitor. The AUC is effectively the average response multiplied by the duration of the response. The AUC of the test article, AUCTA was then corrected by subtracting the average vehicle response, AUCV,ave over the same time range, and normalized as for the inhibitor-sensitive current to the difference of the corrector reference standard VX809 (3 μM VX809r,ave and the vehicle response:
NAUCTA=[AUCTA−AUCV,ave]/[AUCVx809r,ave−AUCV,ave] (Equation 2).
The normalized value for DMSO is 0.0 and for VX-809 alone is 1.0 for both of these equations.
Experiments were run with a minimum of n=4 replicates per concentration. Since the distribution for the ratio of two normal distributions is a Cauchy distribution, the median value must be used for the average and the average deviation must be used for the error of all normalized data. […]

T1 sequence (P13569 with tags, fused parts or gaps DEL508-508): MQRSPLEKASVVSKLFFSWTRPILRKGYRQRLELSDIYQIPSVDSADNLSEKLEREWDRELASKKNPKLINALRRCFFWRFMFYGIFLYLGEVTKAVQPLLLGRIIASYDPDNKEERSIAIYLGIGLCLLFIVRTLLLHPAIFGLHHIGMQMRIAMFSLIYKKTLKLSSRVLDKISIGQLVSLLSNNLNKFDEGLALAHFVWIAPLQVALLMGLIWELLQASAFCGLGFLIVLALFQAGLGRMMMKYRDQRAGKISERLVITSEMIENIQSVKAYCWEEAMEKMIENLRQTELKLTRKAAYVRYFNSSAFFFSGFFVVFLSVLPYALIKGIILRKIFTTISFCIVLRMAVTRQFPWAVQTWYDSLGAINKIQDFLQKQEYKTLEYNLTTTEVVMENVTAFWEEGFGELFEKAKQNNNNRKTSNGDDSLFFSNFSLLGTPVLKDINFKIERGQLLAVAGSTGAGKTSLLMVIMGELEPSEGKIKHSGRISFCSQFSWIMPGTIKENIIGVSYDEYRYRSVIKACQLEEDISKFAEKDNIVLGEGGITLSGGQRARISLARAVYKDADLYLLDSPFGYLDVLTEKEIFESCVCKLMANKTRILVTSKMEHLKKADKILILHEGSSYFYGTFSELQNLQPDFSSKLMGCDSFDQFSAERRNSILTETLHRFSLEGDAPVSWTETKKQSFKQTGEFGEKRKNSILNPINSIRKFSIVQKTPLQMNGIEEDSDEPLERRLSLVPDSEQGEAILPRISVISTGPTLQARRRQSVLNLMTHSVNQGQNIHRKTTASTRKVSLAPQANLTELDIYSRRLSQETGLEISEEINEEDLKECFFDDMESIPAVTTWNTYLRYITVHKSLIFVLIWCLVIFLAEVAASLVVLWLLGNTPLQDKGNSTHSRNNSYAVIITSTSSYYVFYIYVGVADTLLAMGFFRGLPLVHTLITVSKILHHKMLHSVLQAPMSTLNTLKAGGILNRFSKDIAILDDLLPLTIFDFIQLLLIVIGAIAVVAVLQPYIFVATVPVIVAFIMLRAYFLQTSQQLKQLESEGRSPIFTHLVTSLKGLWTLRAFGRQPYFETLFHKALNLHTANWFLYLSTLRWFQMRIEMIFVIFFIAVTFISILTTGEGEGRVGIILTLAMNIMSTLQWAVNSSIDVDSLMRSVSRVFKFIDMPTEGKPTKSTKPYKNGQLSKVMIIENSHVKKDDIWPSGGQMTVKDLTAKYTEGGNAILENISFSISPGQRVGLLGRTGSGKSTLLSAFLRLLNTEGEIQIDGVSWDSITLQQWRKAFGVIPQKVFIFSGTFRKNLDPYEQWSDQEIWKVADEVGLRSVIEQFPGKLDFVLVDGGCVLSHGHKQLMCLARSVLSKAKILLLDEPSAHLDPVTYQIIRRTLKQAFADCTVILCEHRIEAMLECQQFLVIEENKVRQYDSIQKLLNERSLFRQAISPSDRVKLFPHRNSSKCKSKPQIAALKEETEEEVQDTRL

| Compound | Corr Activity (NAUC) |
| --- | --- |
| Cc1nc2ccc(N(C)C(=O)Cn3nc(-c4cccc(F)c4)c4sccc4c3=O)cc2o1 [Example 1, 2-(7-(3-Fluorophenyl)-4-oxothieno[2,3-d]pyridazin-5(4H)-yl)-N-methyl-N-(2-methylbenzo[d]oxazol-6-yl)acetamide] | +++ (NAUC>70% of positive control) |
| CN(C(=O)Cn1nc(-c2cccc(F)c2)c2sccc2c1=O)c1ccc2c(c1)CCC2 [Example 3] | +++ (NAUC>70% of positive control) |
| CCN(C(=O)Cn1nc(-c2cccc(Cl)c2)c2sccc2c1=O)c1ccc2nc(C)oc2c1 [Example 4] | +++ (NAUC>70% of positive control) |
| CCN(C(=O)Cn1nc(-c2cccc(Cl)c2)c2sccc2c1=O)c1ccc2c(c1)OC(F)(F)O2 [Example 5] | +++ (NAUC>70% of positive control) |
| CN(C(=O)Cn1nc(-c2cccc(C#N)c2)c2sccc2c1=O)c1ccc2c(c1)OC(F)(F)O2 [Example 7] | +++ (NAUC>70% of positive control) |
| CCN(C(=O)Cn1nc(-c2cccc(Cl)c2)c2onc(C)c2c1=O)c1ccc2c(c1)OC(F)(F)O2 [Example 18] | ++ (NAUC 70-40% of positive control) |
| Cc1nc2ccc(N(C)C(=O)Cn3nc(-c4cccc(F)c4)c4sc(C)nc4c3=O)cc2o1 [Example 19] | +++ (NAUC>70% of positive control) |
| Cc1nc2ccc(N(C)C(=O)Cn3nc(-c4cccc(Cl)c4)c4sc(C)nc4c3=O)cc2o1 [Example 20] | +++ (NAUC>70% of positive control) |
| CCN(C(=O)Cn1nc(-c2cccc(Cl)c2)c2[nH]cnc2c1=O)c1ccc2c(c1)OC(F)(F)O2 [Example 26] | +++ (NAUC>70% of positive control) |
| N#Cc1cccc(-c2nn(CC(=O)N(c3ccc4c(c3)OC(F)(F)O4)C3CCC3)c(=O)c3ccoc23)c1 [Example 33, 2-(7-(3-cyanophenyl)-4-oxofuro[2,3-d]pyridazin-5(4H)-yl)-N-cyclobutyl-N-(2,2-difluorobenzo[d][1,3]dioxol-5-yl)acetamide] | +++ (NAUC>70% of positive control) |
| N#Cc1cccc(-c2nn(CC(=O)N(c3ccc4c(c3)OC(F)(F)O4)C3CCOC3)c(=O)c3ccoc23)c1 (stereo not shown) [Example 39] | +++ (NAUC>70% of positive control) |
| N#Cc1cccc(-c2nn(CC(=O)N(c3ccc4c(c3)OC(F)(F)O4)C3CC3)c(=O)c3ccoc23)c1 [Example 40] | ++ (NAUC 70-40% of positive control) |
| CN(C(=O)Cn1nc(-c2cc(F)cc(F)c2)c2occc2c1=O)c1ccc2c(c1)OC(F)(F)O2 [Example 41] | +++ (NAUC>70% of positive control) |
| CN(C(=O)Cn1nc(-c2cc(Cl)cc(Cl)c2)c2occc2c1=O)c1ccc2c(c1)OC(F)(F)O2 [Example 42] | +++ (NAUC>70% of positive control) |
| CCN(C(=O)Cn1nc(-c2cccc(F)c2)c2c(c1=O)CCC2)c1ccc2nc(C)oc2c1 [Example 43] | +++ (NAUC>70% of positive control) |
| Cc1cc2c(cc1N(C)C(=O)Cn1nc(-c3cccc(C#N)c3)c3occc3c1=O)OC(F)(F)O2 [Example 44] | +++ (NAUC>70% of positive control) |
| CCN(C(=O)Cn1nc(-c2cccc(C#N)c2)c2occc2c1=O)c1cc2c(cc1C)OC(F)(F)O2 [Example 45] | +++ (NAUC>70% of positive control) |
| CCN(C(=O)Cn1nc(-c2cc(F)cc(OC)c2)c2occc2c1=O)c1ccc2c(c1)OC(F)(F)O2 [Example 47] | +++ (NAUC>70% of positive control) |
| Cc1nc2ccc(N(C)C(=O)Cn3nc(-c4cccc(Cl)c4)c4c(c3=O)CCC4)cc2o1 [Example 48] | ++ (NAUC 70-40% of positive control) |
| CCN(C(=O)Cn1nc(-c2cccc(Cl)c2)c2c(c1=O)CCC2)c1ccc2nc(C)oc2c1 [Example 49] | ++ (NAUC 70-40% of positive control) |

| Compound | Corr Activity (NAUC) |
| --- | --- |
| CCN(C(=O)Cn1nc(-c2cccc(C#N)c2)c2c(c1=O)CCC2)c1ccc2nc(C)oc2c1 [Example 50] | +++ (NAUC>70% of positive control) |
| O=C(Cn1nc(-c2cccc(Cl)c2)c2occc2c1=O)N1CCCc2c1ccc1c2OC(F)(F)O1 [Example 51] | ++ (NAUC 70-40% of positive control) |
| N#Cc1cccc(-c2nn(CC(=O)N3CCCc4c3ccc3c4OC(F)(F)O3)c(=O)c3ccoc23)c1 [Example 52] | ++ (NAUC 70-40% of positive control) |
| Cc1c(N(C)C(=O)Cn2nc(-c3cccc(C#N)c3)c3occc3c2=O)ccc2c1OC(F)(F)O2 [Example 53] | +++ (NAUC>70% of positive control) |
| CCN(C(=O)Cn1nc(-c2cccc(C#N)c2)c2occc2c1=O)c1ccc2c(c1C)OC(F)(F)O2 [Example 54] | +++ (NAUC>70% of positive control) |
| CCc1c(N(CC)C(=O)Cn2nc(-c3cccc(C#N)c3)c3occc3c2=O)ccc2c1OC(F)(F)O2 [Example 55] | +++ (NAUC>70% of positive control) |
| CCc1cc2c(cc1N(CC)C(=O)Cn1nc(-c3cccc(C#N)c3)c3occc3c1=O)OC(F)(F)O2 [Example 56] | + (NAUC<40% of positive control) |
| N#Cc1cccc(-c2nn(CC(=O)N3CC4(CC4)c4c3ccc3c4OC(F)(F)O3)c(=O)c3ccoc23)c1 [Example 58] | + (NAUC<40% of positive control) |
| CN(C(=O)Cn1nc(-c2cccc(C#N)c2)c2occc2c1=O)c1ccc2c(c1F)OC(F)(F)O2 [Example 59] | +++ (NAUC>70% of positive control) |
| CCN(C(=O)Cn1nc(-c2cccc(C#N)c2)c2occc2c1=O)c1ccc2c(c1F)OC(F)(F)O2 [Example 60] | +++ (NAUC>70% of positive control) |
| CCN(C(=O)Cn1nc(-c2cccc(C#N)c2)c2occc2c1=O)c1ccc(C(F)(F)F)cc1 [Example 61] | + (NAUC<40% of positive control) |
| CCN(C(=O)Cn1nc(-c2cccc(C#N)c2)c2occc2c1=O)c1ccc(OC(F)(F)F)cc1 [Example 62] | + (NAUC<40% of positive control) |
| CCN(C(=O)Cn1nc(-c2cccc(C#N)c2)c2oc(Cl)cc2c1=O)c1ccc2c(c1)OC(F)(F)O2 [Example 63] | ++ (NAUC 70-40% of positive control) |
| CN(C(=O)Cn1nc(-c2cccc(C#N)c2)c2oc(Cl)cc2c1=O)c1ccc2c(c1)OC(F)(F)O2 [Example 64] | ++ (NAUC 70-40% of positive control) |
| CN(C(=O)Cn1nc(-c2cccc(Cl)c2)c2oc(C(=O)N3CCCC3)cc2c1=O)c1ccc2c(c1)OC(F)(F)O2 [Example 65, 2-(7-(3-chlorophenyl)-4-oxo-2-(pyrrolidine-1-carbonyl)furo[2,3-d]pyridazin-5(4H)-yl)-N-(2,2-difluorobenzo[d][1,3]dioxol-5-yl)-N-methylacetamide] | + (NAUC<40% of positive control) |
| CCN(C(=O)Cn1nc(-c2cccc(C#N)c2)c2oc(C)cc2c1=O)c1ccc2c(c1)OC(F)(F)O2 [Example 69] | +++ (NAUC>70% of positive control) |
| Cc1cc2c(=O)n(CC(=O)N(C)c3ccc4c(c3)OC(F)(F)O4)nc(-c3cc(Cl)cc(Cl)c3)c2o1 [Example 70] | +++ (NAUC>70% of positive control) |
| Cc1cc2c(=O)n(CC(=O)N(C)c3ccc4c(c3)OC(F)(F)O4)nc(-c3cc(F)cc(F)c3)c2o1 [Example 71] | +++ (NAUC>70% of positive control) |
| Cc1cc2c(=O)n(CC(=O)N(C)c3ccc4c(c3)OC(F)(F)O4)nc(-c3cc(Cl)cc(C#N)c3)c2o1 [Example 72] | +++ (NAUC>70% of positive control) |
| CCN(C(=O)Cn1nc(-c2cc(Cl)cc(Cl)c2)c2oc(C)cc2c1=O)c1ccc2c(c1)OC(F)(F)O2 [Example 73] | +++ (NAUC>70% of positive control) |
